In paper PMC10945555, “Improving Activity of New Arylurea Agents against Multidrug-Resistant and Biofilm-Producing Staphylococcus epidermidis” (ACS Medicinal Chemistry Letters, 2024):
In brackets after ≈: the same amount, converted by molar mass.

Key:
[1] = test system: Pseudomonas aeruginosa ATCC 27853; test: MIC, Gram-negative reference strain; assay type: cell-based; conditions: for MIC: Pseudomonas aeruginosa, ATCC27853, read-out: MIC P. aeruginosa
Protocol: (§1) 2 Biological assay protocols
(§2) Microbiological tests were carried out under aseptic conditions in a laminar chamber of the 2nd […]
(§3) (BioTectum 1.2, Alchem Poland). The assessment of antimicrobial activity was carried out for final compounds in the form of free bases, soluble in DMSO (Merck, Germany), at the initial […]
(§4) concentration of 1 mg/mL. […]
(§5) were provided by Cayman Chemical, USA.
(§6) The activity of all newly synthesized compounds was tested in vitro on a panel of selected reference strains from the American Type Culture Collection (ATCC) of Gram-positive […]
(§7) 2.2 Effect of evaluated compounds on planktonic cells
(§8) The susceptibility of three reference bacterial strains (Staphylococcus epidermidis ATCC […]
(§9) Table S1) and 81 clinical MDR S. epidermidis (Table S2) to the tested compounds was assessed by determining the MIC value (Minimal Inhibitory Concentration) by microdilution in a liquid medium in 96-well flat-bottom cell culture plates (Nest Biotechnology Scientific, USA). The antibacterial properties of the compo unds were tested in the concentration range from 50 µg/mL to 0.1 µg/mL by making a series of double dilutions of the compound in liquid Mueller -Hinton II Broth Cation Adjusted (MHB II, BBL TM, USA) according to the European Committee on […]
(§10) Antimicrobial Susceptibility Testing guidelines (EUCAST).2,3 The determinations were performed twice. The MIC50 and MIC90 values were determined for each of the tested

[2] = test system: Acinetobacter baumannii ATCC 19606; test: MIC, Gram-negative reference strain; assay type: cell-based; conditions: for MIC: Acinetobacter baumannii, ATCC19606
Protocol: as §1, §2, §3, §4, §5, §6, §7, §8, §9, §10

[3] = test system: Escherichia coli ATCC 25922; test: MIC, Gram-negative reference strain; assay type: cell-based; conditions: for MIC: Escherichia coli, ATCC25922
Protocol: as §1, §2, §3, §4, §5, §6, §7, §8, §9, §10

[4] = test system: biofilm-producing Staphylococcus epidermidis strains; test: Biofilm eradication (MBEC Assay Kit); assay type: cell-based; conditions: for MBEC50 / MBEC90: Table S4 strains
horse red blood cells = test: Hemolytic activity assay
Protocol: 2.3.3 Hemolytic activity assay
The hemolytic properties of tested compound were evaluated according to previously reported procedure.6 Defibrinated horse red blood cells purchased from Thermo Fisher Scientific (Germany) were washed with PBS (3000 rpm, 10 min at 4 °C) for three times followed by PBS dilution to obtain a 8% suspension. Then, 100 μL of the resulting suspensions […]
were treated with 100 μL of tested compound at the final concentration of 200 μM, and incubated at 37 °C for 1 h. Triton X-100 (2%) and PBS were used as positive and negative controls, respectively. After centrifugation at 3000 rpm for 3 min, 100 μL of the supernatants were transferred to a 96 well microtiter plate and the hemoglobin release was determined in a SpectraMax iD3 reader (Molecular Devices) by absorption at 540 nm. […]

[5] = S. epidermidis ATCC 35984 (Table S4)

Compound: CC(=O)NC[C@H]1CN(c2ccc(N3CCOCC3)c(F)c2)C(=O)O1 [linezolid, reference compound]
- MIC [1]: 50 µg/mL (≈ 148 µM)
- MIC [2]: 50 µg/mL (≈ 148 µM)
- MIC [3]: 50 µg/mL (≈ 148 µM)
- MBEC [4, 5]: 15.6 µg/mL
- MBEC50 [4]: 50 µg/mL
- MBEC90 [4]: 50 µg/mL
- MBEC ([4]; clinical strain 1 (Table S4)): 31.25 µg/mL
- MBEC ([4]; clinical strain 2 (Table S4)): 50 µg/mL
- MBEC ([4]; clinical strain 3 (Table S4)): 50 µg/mL
- MBEC ([4]; clinical strain 4 (Table S4)): 50 µg/mL
- MBEC ([4]; clinical strain 5 (Table S4)): 50 µg/mL
- MBEC ([4]; clinical strain 6 (Table S4)): 31.25 µg/mL
- MBEC ([4]; clinical strain 7 (Table S4)): 50 µg/mL
- MBEC ([4]; clinical strain 8 (Table S4)): 15.6 µg/mL
- MBEC ([4]; clinical strain 9 (Table S4)): 50 µg/mL
- MBEC ([4]; clinical strain 11 (Table S4)): 50 µg/mL
- MBEC ([4]; clinical strain 12 (Table S4)): 50 µg/mL
- MBEC ([4]; clinical strain 13 (Table S4)): 7.8 µg/mL
- MBEC ([4]; clinical strain 15 (Table S4)): 50 µg/mL
- MBEC ([4]; clinical strain 16 (Table S4)): 50 µg/mL
- MBEC ([4]; clinical strain 17 (Table S4)): 31.25 µg/mL
- MBEC ([4]; clinical strain 19 (Table S4)): 31.25 µg/mL
- MBEC ([4]; clinical strain 21 (Table S4)): 50 µg/mL
- MBEC ([4]; clinical strain 22 (Table S4)): 50 µg/mL
- MBEC ([4]; clinical strain 23 (Table S4)): 15.6 µg/mL
- MBEC ([4]; clinical strain 25 (Table S4)): 15.6 µg/mL
- MBEC ([4]; clinical strain 26 (Table S4)): 50 µg/mL
- MBEC ([4]; clinical strain 27 (Table S4)): 50 µg/mL
- MBEC ([4]; clinical strain 28 (Table S4)): 50 µg/mL
- MBEC ([4]; clinical strain 29 (Table S4)): 50 µg/mL
- MBEC ([4]; clinical strain 30 (Table S4)): 7.8 µg/mL
- MBEC ([4]; clinical strain 33 (Table S4)): 50 µg/mL
- MBEC ([4]; clinical strain 35 (Table S4)): 50 µg/mL
- MBEC ([4]; clinical strain 36 (Table S4)): 50 µg/mL
- MBEC ([4]; clinical strain 37 (Table S4)): 50 µg/mL
- MBEC ([4]; clinical strain 39 (Table S4)): 7.8 µg/mL
- MBEC ([4]; clinical strain 40 (Table S4)): 50 µg/mL
- MBEC ([4]; clinical strain 41 (Table S4)): 50 µg/mL
- MBEC ([4]; clinical strain 42 (Table S4)): 50 µg/mL
- MBEC ([4]; clinical strain 43 (Table S4)): 50 µg/mL
- MBEC ([4]; clinical strain 44 (Table S4)): 25 µg/mL
- MBEC ([4]; clinical strain 45 (Table S4)): 50 µg/mL
- MBEC ([4]; clinical strain 46 (Table S4)): 50 µg/mL
- MBEC ([4]; clinical strain 47 (Table S4)): 25 µg/mL
- MBEC ([4]; clinical strain 49 (Table S4)): 25 µg/mL
- MBEC ([4]; clinical strain 51 (Table S4)): 50 µg/mL
- MBEC ([4]; clinical strain 55 (Table S4)): 50 µg/mL
- MBEC ([4]; clinical strain 58 (Table S4)): 50 µg/mL
- MBEC ([4]; clinical strain 59 (Table S4)): 50 µg/mL
- MBEC ([4]; clinical strain 65 (Table S4)): 50 µg/mL
- MBEC ([4]; clinical strain 66 (Table S4)): 25 µg/mL
- MBEC ([4]; clinical strain 67 (Table S4)): 50 µg/mL
- MBEC ([4]; clinical strain 70 (Table S4)): 50 µg/mL
- MBEC ([4]; clinical strain 73 (Table S4)): 15.6 µg/mL
- MBEC ([4]; clinical strain 74 (Table S4)): 25 µg/mL
- MBEC ([4]; clinical strain 75 (Table S4)): 50 µg/mL
- MBEC ([4]; clinical strain 78 (Table S4)): 15.6 µg/mL
- MBEC ([4]; clinical strain 79 (Table S4)): 15.6 µg/mL

Compound: O=C(Nc1cccc(Cl)c1)NC1CCN(CCC(Oc2ccc(C(F)(F)F)cc2)c2cccs2)CC1 (stereo not drawn) [Compound 25]
- MIC P. aeruginosa [1]: exceeded 50 µg/mL
- MIC [1]: 50 µg/mL (≈ 92.9 µM)
- MIC A. baumannii [2]: exceeded 50 µg/mL
- MIC [2]: 50 µg/mL (≈ 92.9 µM)
- MIC E. coli [3]: exceeded 50 µg/mL
- MIC [3]: 50 µg/mL (≈ 92.9 µM)
- MBEC [4, 5]: 7.8 µg/mL
- MBEC50 [4]: 31.25 µg/mL
- MBEC90 [4]: 31.25 µg/mL
- MBEC ([4]; clinical strain 1 (Table S4)): 31.25 µg/mL
- MBEC ([4]; clinical strain 2 (Table S4)): 31.25 µg/mL
- MBEC ([4]; clinical strain 3 (Table S4)): 31.25 µg/mL
- MBEC ([4]; clinical strain 4 (Table S4)): 31.25 µg/mL
- MBEC ([4]; clinical strain 6 (Table S4)): 15.6 µg/mL
- MBEC ([4]; clinical strain 7 (Table S4)): 31.25 µg/mL
- MBEC ([4]; clinical strain 8 (Table S4)): 7.8 µg/mL
- MBEC ([4]; clinical strain 9 (Table S4)): 31.25 µg/mL
- MBEC ([4]; clinical strain 11 (Table S4)): 31.25 µg/mL
- MBEC ([4]; clinical strain 12 (Table S4)): 31.25 µg/mL
- MBEC ([4]; clinical strain 13 (Table S4)): 3.9 µg/mL
- MBEC ([4]; clinical strain 15 (Table S4)): 31.25 µg/mL
- MBEC ([4]; clinical strain 16 (Table S4)): 31.25 µg/mL
- MBEC ([4]; clinical strain 17 (Table S4)): 15.6 µg/mL
- MBEC ([4]; clinical strain 19 (Table S4)): 15.6 µg/mL
- MBEC ([4]; clinical strain 21 (Table S4)): 31.25 µg/mL
- MBEC ([4]; clinical strain 22 (Table S4)): 31.25 µg/mL
- MBEC ([4]; clinical strain 23 (Table S4)): 7.8 µg/mL
- MBEC ([4]; clinical strain 25 (Table S4)): 7.8 µg/mL
- MBEC ([4]; clinical strain 26 (Table S4)): 31.25 µg/mL
- MBEC ([4]; clinical strain 27 (Table S4)): 31.25 µg/mL
- MBEC ([4]; clinical strain 28 (Table S4)): 31.25 µg/mL
- MBEC ([4]; clinical strain 29 (Table S4)): 31.25 µg/mL
- MBEC ([4]; clinical strain 30 (Table S4)): 3.9 µg/mL
- MBEC ([4]; clinical strain 33 (Table S4)): 31.25 µg/mL
- MBEC ([4]; clinical strain 35 (Table S4)): 31.25 µg/mL
- MBEC ([4]; clinical strain 36 (Table S4)): 31.25 µg/mL
- MBEC ([4]; clinical strain 37 (Table S4)): 31.25 µg/mL
- MBEC ([4]; clinical strain 39 (Table S4)): 3.9 µg/mL
- MBEC ([4]; clinical strain 40 (Table S4)): 31.25 µg/mL
- MBEC ([4]; clinical strain 41 (Table S4)): 31.25 µg/mL
- MBEC ([4]; clinical strain 42 (Table S4)): 31.25 µg/mL
- MBEC ([4]; clinical strain 43 (Table S4)): 31.25 µg/mL
- MBEC ([4]; clinical strain 44 (Table S4)): 15.6 µg/mL
- MBEC ([4]; clinical strain 45 (Table S4)): 31.25 µg/mL
- MBEC ([4]; clinical strain 46 (Table S4)): 31.25 µg/mL
- MBEC ([4]; clinical strain 47 (Table S4)): 15.6 µg/mL
- MBEC ([4]; clinical strain 49 (Table S4)): 15.6 µg/mL
- MBEC ([4]; clinical strain 51 (Table S4)): 31.25 µg/mL
- MBEC ([4]; clinical strain 55 (Table S4)): 31.25 µg/mL
- MBEC ([4]; clinical strain 58 (Table S4)): 31.25 µg/mL
- MBEC ([4]; clinical strain 59 (Table S4)): 31.25 µg/mL
- MBEC ([4]; clinical strain 65 (Table S4)): 31.25 µg/mL
- MBEC ([4]; clinical strain 66 (Table S4)): 15.6 µg/mL
- MBEC ([4]; clinical strain 67 (Table S4)): 31.25 µg/mL
- MBEC ([4]; clinical strain 70 (Table S4)): 31.25 µg/mL
- MBEC ([4]; clinical strain 73 (Table S4)): 7.8 µg/mL
- MBEC ([4]; clinical strain 74 (Table S4)): 15.6 µg/mL
- MBEC ([4]; clinical strain 75 (Table S4)): 31.25 µg/mL
- MBEC ([4]; clinical strain 78 (Table S4)): 7.8 µg/mL
- MBEC ([4]; clinical strain 79 (Table S4)): 7.8 µg/mL
- %hem (hemolytic activity) (horse red blood cells; 200 μM, 1 h, n = 3): 0.54%
- lysis of erythrocytes (horse red blood cells; concentrations up to 200 μM): None of them caused lysis of erythrocytes
